Measured values from publication PMC11910330, “Familial Alzheimer’s disease mutations in amyloid precursor protein impair calcineurin signaling to NMDA receptors” (The Journal of Biological Chemistry, 2024).
No end group written: not given here. *: point of attachment. Biotin = O=C1N[C@H]2[C@H](CS[C@H]2CCCCC(=O)*)N1

Tested on: human recombinant GST-CaN
Assay: Peptide/CaN interaction assay (biotinylated peptides on streptavidin beads, GST-CaN pull-down, Western blot)
Assay type: binding
Details: for percent of CaN recovered (signal for each/signal for CaN standard * 40%) / CaN binding (in words) / CaN binding lower than the PVIVIT peptide: Fig. 1H; for percent of CaN recovered (signal for each/signal for CaN standard * 40%): 10 μg N-terminally biotinylated peptide on streptavidin beads, 200 ng GST-CaN, 30 min, 4 °C, Western blot, mean (n=7; APP-17mer n=3); for Western blot data following CaN interaction with biotinylated peptides, (signal for each/signal for CaN standard) * 40%: biotinylated APP peptides, GST-CaN pull-down; for CaN binding relative to the APP (WT) peptide (in words): Fig. 4B, FAD mutant peptides
From the text: Recombinant rabbit monoclonal to APP (clone Y188; Abcam cat# ab32136; 1:5000 dilution), rabbit polyclonal to APLP1 (Proteintech cat # 12305-2-AP; 1:1000 dilution), and rabbit polyclonal to APLP2 (Proteintech cat # 15041-1-A; 1:500 dilution) were used to detect native APP family members on western blots or recombinant GFP-tagged APP family members as validation (see Fig. S1). A horseradish peroxidase (HRP)-conjugated goat anti-rabbit antibody (Sigma-Aldrich Cat# 12-348; 1:10,000 dilution) was used as secondary antibody for these western blots, while an HRP-conjugated mouse monoclonal antibody to GFP (Invitrogen cat # MA 515256HRP; 1:1000 dilution) was used to independently verify the expression of GFP or GFP-tagged APP family members. A mouse monoclonal antibody CaN (BD Biosciences Cat# 556350; 1:1000 dilution) was used for the detection of native and recombinant CaN on western blots and for co-immunoprecipitation and peptide-based interaction assays experiments, while nonspecific mouse IgG (Thermo Fisher Scientific Cat# 02-6502) was used as a control. An HRP-conjugated goat anti-mouse antibody (Sigma-Aldrich Cat# 12-349; 1:10,000 dilution) […] was used as secondary antibody for these western blots, while HRP-conjugated protein G (Sigma-Aldrich cat # 18-161; 1:5000 dilution) was used for the secondary detection of CaN in co-immunoprecipitation experiments. A mouse monoclonal anti-Flag antibody (Sigma-Aldrich Cat# F1804) was used for co-immunoprecipitations of recombinant APP family members, while an HRP-conjugated version of this antibody (Sigma-Aldrich Cat# A8592; 1:1000) was used for the detection on western blots.
The N-terminally biotinylated AKAP79(330-357) and Ht31peptides were synthesized by Biomolecules Midwest and used as positive and negative controls for CaN interaction as previously described ([20]).
Either PBS with fresh 0.1% Tween-20 and 0.1% bovine serum albumin added or a modified IP buffer (150 mM NaCl, 10 mM Hepes; 5 mM EDTA; pH 7.4) with fresh 0.5% CHAPSO and 0.1% bovine serum albumin was used for these assays. […] Streptavidin-coated dynabeads (20 μl; Invitrogen cat # 65601) were washed and then incubated with 10 μg biotinylated peptides for 15 min at 4 °C in 200 μl of buffer. Beads were washed rapidly (400 μl; 3×) to remove unbound peptide and then incubated with 200 ng human recombinant GST-CaN in 200 μl buffer for 30 min at 4 °C. Following three washes (400 μl; 5 min each), complexes were eluted in 40 μl 2× Laemmli buffer, and samples were separated by SDS-PAGE and analyzed by Western blotting as above. Blots were probed with the mouse monoclonal anti-CaN antibody followed by anti-mouse HRP for secondary detection and visualized by enhanced chemiluminescence and digitally acquired as above. For each blot, the intensity of each band was normalized to that of from the GST-CaN standard (80 ng). As this standard represented 40% of the 200 ng input, the ratio was multiplied by 40 to achieve the percent of CaN recovered.

Substance	percent of CaN recovered (signal for each/signal for CaN standard * 40%) [%]	CaN binding (in words)	Western blot data following CaN interaction with biotinylated peptides, (signal for each/signal for CaN standard) * 40% (mean of n = 6) [%]	Western blot data following CaN interaction with biotinylated peptides, (signal for each/signal for CaN standard) * 40% (replicate 1) [%]	Western blot data following CaN interaction with biotinylated peptides, (signal for each/signal for CaN standard) * 40% (replicate 2) [%]	Western blot data following CaN interaction with biotinylated peptides, (signal for each/signal for CaN standard) * 40% (replicate 3) [%]	Western blot data following CaN interaction with biotinylated peptides, (signal for each/signal for CaN standard) * 40% (replicate 4) [%]	Western blot data following CaN interaction with biotinylated peptides, (signal for each/signal for CaN standard) * 40% (replicate 5) [%]	Western blot data following CaN interaction with biotinylated peptides, (signal for each/signal for CaN standard) * 40% (replicate 6) [%]	CaN binding lower than the PVIVIT peptide [%]	CaN binding relative to the APP (WT) peptide (in words)
AKAP79: N-terminally biotinylated peptide derived from the AKAP79 CaN-binding domain, positive control (Biotin-EESKRMEPIAIIITDTEISEFDVTKSKN) [reference compound]	21.96										
GVVIATVIVITLVMLKK [APP-17mer]	2.14	minimal affinity for CaN									
MAGPHIVIVITGPHEE [T639I, biotinylated APP peptide incorporating the FAD mutation T639I]			54.45	94.68	40.64	44.78	37.21	55.66	53.70		
MAGPHSLIVLSGPHEE [APLP1]	13.18									~80	
MAGPHTMIVITGPHEE [V640M, biotinylated APP peptide incorporating the FAD mutation V640M]			42.81	69.77	35.90	61.53	25.01	31.86	32.78		
MAGPHTVFVITGPHEE [I641F, biotinylated APP peptide incorporating the FAD mutation I641F]			22.96	23.46	18.34	34.56	13.72	12.91	34.77		reduced substantially
MAGPHTVIFITGPHEE [V642F, biotinylated APP peptide incorporating the FAD mutation V642F]			43.86	84.45	46.13	42.80	26.46	29.11	34.24		
MAGPHTVIIITGPHEE [V642I, biotinylated APP peptide incorporating the FAD mutation V642I]			44.18	54.96	45.24	82.71	28.44	26.76	26.97		
MAGPHTVIVIPGPHEE [T644P, biotinylated APP peptide incorporating the FAD mutation T644P]			4.71	0.13	8.45	2.14	4.28	3.74	9.51		reliably reduced CaN binding
MAGPHTVIVISGPHEE [APLP2]	42.75									~30	
MAGPHTVIVITGPHEE [APP]	52.92	nearly the same extent as the PVIVIT peptide									
